The results in this text go back to patent US11912677B1, “1,3-benzothiazol-2-yl-N'-[(3-phenylprop-2-enoyl)oxy]ethanimidamide as an anticancer and antimicrobial compound” (KING FAISAL UNIVERSITY, priority 2023, dated 2024).

Molecules are shown by their SMILES.

The subject of series [1] is human prostate cancer cells (PC3). Briefly: Assessment of cytotoxicity by SRB assay, PC3 cells. The series is classed as cell-based. The note with it: 0.01 μM to 100 μM, 72 h. The protocol: (§1) The human prostate cancer cells (PC3) and human osteosarcoma cells (MG-63) were obtained from Nawah Scientific Inc. (Mokatam, Cairo, Egypt) and cultured in DMEM (Dulbecco's modified eagle's medium), Gibco, USA, supplemented with fetal bovine serum […] at a concentration of 10% and 100 U/mL of penicillin and streptomycin (PS). The Cells were incubated at 37° C. in a humidified environment that contained 5% CO2.
(§2) Cells were seeded in 96-well plates as aliquots of 100 μL cell suspension and incubated in a complete media for 24 h. Afterward, cells were treated with 1,3-benzothiazol-2-yl-N′-[(3-phenylprop-2-enoyl)oxy]ethanimidamide at diverse concentrations ranging from 0.01 μM to 100 μM for 72 h. Then, cells were fixed at 4° C. for one hour with 150 μL of 10% trichloroacetic acid (TCA). […] Then, 150 μL of Tris pH 10.5 (10 mM) was added, and the absorbance was measured at 540 nm using a BMG LABTECH®—FLUOstar Omega microplate reader (Ortenberg, Germany). Half maximal inhibitory concentrations (IC50) values were calculated for each experiment using GraphPad Prism 6 software. […] The inhibition was calculated using the following equation: Inhibition %=100−Average Viability
(§3) The anticancer activity of 1,3-benzothiazol-2-yl-N′-[(3-phenylprop-2-enoyl)oxy]ethanimidamide was assessed against highly aggressive androgen-independent metastatic human prostate cancer cells (PC3) and osteosarcoma (MG-63) cells.
On the technique in general: The SRB assay estimates cell density from bound dye.

Series [2] has as its system human osteosarcoma cells (MG-63). Description: Assessment of cytotoxicity by SRB assay, MG-63 cells. The format is cell-based. Particulars: 0.01 μM to 100 μM, 72 h. As for the experimental part:
as §1, §2, §3

Turning to `N/C(Cc1nc2ccccc2s1)=N\OC(=O)/C=C/c1ccccc1` [1,3-benzothiazol-2-yl-N′-[(3-phenylprop-2-enoyl)oxy]ethanimidamide], the melting point lay within 157 to 159 °C. The “antiproliferative activity against prostate cancer cells (PC3)” value in series [1] is “excellent antiproliferative activities”. The “antiproliferative activity against osteosarcoma (MG-63) cells” value in series [2] is reported as “excellent antiproliferative activities”.

A word on the melting point: it is the temperature of the solid-liquid transition.
